From the OPERA property sets (Mansouri et al. 2018) come the findings set out here.

The structures appear in SMILES notation.

Conditions in the first data set: not given
Turning to `Cc1cc(Cl)c(Cl)cc1Cl`, the boiling point stood at 231 °C, the log10 Henry constant (atm·m³/mol) was -2.82 and the melting point came out at 82.4 °C. Compound `Clc1cc(Cl)c(Cl)c(-c2c(Cl)c(Cl)cc(Cl)c2Cl)c1Cl` came in with a log10 Henry constant (atm·m³/mol) of -4.74 and a log10 Koc (L/kg) of 6.36.

`CCCCC(C)(C)C`: the log10 biodegradation half-life (days) was determined as 0.602, the log10 vapour pressure (mmHg) was determined as 1.53 and the melting point was -121 °C. Consider `CCCC/C=C\CCCCCCCCCC=O`, for which the boiling point was determined as 250 °C. Same read-out and setting: the figure for `OC(C(F)(F)F)(C(F)(F)F)C(F)(F)F` is 45 °C. In turn, `Cl[C@H]1[C@H](Cl)[C@@H](Cl)[C@@H](Cl)[C@H](Cl)[C@H]1Cl` (racemic) gave a log10 Henry constant (atm·m³/mol) of -5.5, a log10 Koa of 8.29 and a log10 Koc (L/kg) of 3.17. As to `C=CCNC(N)=O`, the melting point amounted to 85 °C. In turn, `Cc1cccc(Cl)n1` gave a boiling point of 184 °C.

With `O=C1C(Cl)=C(Cl)C(=O)c2ccccc21`, the log10 Koc (L/kg) stood at 3.98, the log10 vapour pressure (mmHg) was -5.96, the melting point was determined as 195 °C and the ready biodegradability result is “not readily biodegradable”.

`O=c1ccc2ccc(O)c(O)c2o1`: the melting point stood at 262 °C.

In the case of `COc1ccc(C)cc1N`, the boiling point is 235 °C, the melting point turned out to be 53 °C and the ready biodegradability result is reported as “not readily biodegradable”.

`C1CC2C3CCC(C3)C2C1` (stereo not drawn) showed a log10 biodegradation half-life (days) of 3. On to `Brc1c(Br)c(Br)c(Oc2c(Br)c(Br)c(Br)c(Br)c2Br)c(Br)c1Br`, for which the boiling point turned out to be 530 °C, the melting point was determined as 295 °C and the ready biodegradability entry is “not readily biodegradable”. The compound `CC(=O)[C@H]1CC[C@H]2[C@@H]3CC[C@H]4C[C@H](N)CC[C@]4(C)[C@H]3CC[C@]12C` came in with a melting point of 126 °C. Same read-out and setting: next, `NC(=O)COc1ccccc1`: 102 °C. The compound `Brc1ccc2ncccc2c1` yielded a boiling point of 281 °C and a melting point of 24 °C. `CCCCCCCCSCCO`: the log10 vapour pressure (mmHg) is -3.23 and the melting point amounted to 0 °C. Take `CC#CCCO`: the boiling point came to 154 °C.

`Cc1cnc2ccccc2c1C`: the boiling point was 291 °C and the melting point stood at 73.5 °C.

For `COc1ccc(C(c2ccc(OC)cc2)C(Cl)(Cl)Cl)cc1`, the boiling point is 346 °C, the log10 Henry constant (atm·m³/mol) is -6.69, the log10 Koc (L/kg) amounted to 4.9 and the melting point worked out at 87 °C.

Compound `Nc1nnc(-c2ccc([N+](=O)[O-])o2)s1` registered a melting point of 280 °C. With `CC1(C)[C@H]2CC=C(CO)[C@@H]1C2`, the boiling point turned out to be 222 °C. Compound `O=[N+]([O-])c1ccc(Nc2ccccc2)cc1` yielded a melting point of 135 °C. On the same count and under the same terms, next, `Oc1ncnc2[nH]ncc12`: 350 °C. On to `Cc1ccc(C(C)(C)C)c(O)c1`, for which the melting point was 46.5 °C and the ready biodegradability result is “not readily biodegradable”. `Cc1c(Cl)c(Cl)c(Cl)c(Cl)c1Cl` gave a boiling point of 301 °C, a log10 Henry constant (atm·m³/mol) of -3.11 and a melting point of 225 °C.

`CCOC(=O)C=C1SC(N2CCCCC2)C(=O)N1CC` (stereo not drawn) returned a melting point of 86.5 °C. As to `COc1cc(C=O)ccc1O`, the boiling point was 285 °C, the log10 vapour pressure (mmHg) is -3.93, the melting point was determined as 81.5 °C and the ready biodegradability result is “readily biodegradable”. In turn, `CC1=CC(=O)C(C(C)C)CC1` (stereo not drawn) returned a boiling point of 233 °C. In turn, `c1ccc(CNCCNCc2ccccc2)cc1` displayed a melting point of 26 °C.

Compound `CN(C)c1ccccc1` had a boiling point of 193 °C, a log10 Koc (L/kg) of 2.26, a log10 vapour pressure (mmHg) of -0.155 and a melting point of 2.5 °C. For the same compound, the ready biodegradability result is reported as “not readily biodegradable”. On to `C1SCSCS1`, for which the melting point was 220 °C.

For `C1CN(SSN2CCOCC2)CCO1`, the melting point is 124 °C and the ready biodegradability result was “not readily biodegradable”. For the compound `Nc1nccnn1`, the melting point is 176 °C. The same measure, in the same setting: the figure for `O=C(O)Cc1ccccc1F` is 63 °C. For the compound `CC1(C)C(C=C(Cl)Cl)C1C(=O)OC(C#N)c1cccc(Oc2ccccc2)c1` (stereo not drawn), the log10 Koc (L/kg) stood at 5 and the melting point worked out at 81.3 °C.

With `Nc1cnc2ccccc2c1`, the log10 vapour pressure (mmHg) is -4.54 and the melting point stood at 91.5 °C.

For the compound `O=C1c2ccccc2C(=O)N1CCCBr`, the melting point came to 75 °C. As for `Cc1ccc(S(=O)(=O)c2ccc(C)cc2)cc1`, the boiling point stood at 406 °C and the melting point was 159 °C. In the case of `COC(=O)c1cc(Cl)ccc1N`, the melting point is 67 °C. Regarding `c1ccc(-c2ccccc2-c2ccccc2)cc1`, the boiling point was 332 °C, the log10 vapour pressure (mmHg) was -3.6 and the melting point worked out at 56.2 °C. On to `CCc1nn(C)c(C(=O)NCc2ccc(C(C)(C)C)cc2)c1Cl`, for which the melting point worked out at 61.5 °C. For the compound `Fc1ccccc1`, the boiling point is 84.7 °C, the log10 Henry constant (atm·m³/mol) was -2.2, the log10 vapour pressure (mmHg) was 1.89 and the melting point was -42.2 °C.

The compound `Cc1ccc(CCl)cc1` displayed a boiling point of 201 °C and a log10 vapour pressure (mmHg) of -0.527. `O=C(O)c1cc2ccccc2o1` had a boiling point of 312 °C and a melting point of 192 °C. Compound `OC1CCCCCCCCCCCCCC1` showed a melting point of 80.5 °C. On the same count and under the same terms, the figure for `C=COCCCCCCCCCCCCCCCCCC` is 30 °C.

As to `CCOC(=O)CC(=O)CC(=O)OCC`, the boiling point stood at 250 °C. In the case of `CC(C)OC=O`, the boiling point came to 68.2 °C, the log10 vapour pressure (mmHg) amounted to 2.14 and the melting point is -80 °C. `CCCC(C)(CC)C(C)C` (stereo not drawn) showed a boiling point of 166 °C.

`CCCC(CC)c1ccccc1` (stereo not drawn) registered a boiling point of 209 °C and a melting point of -55.4 °C.

As for `C=CCCCCO`, the ready biodegradability result is listed as “readily biodegradable”. For `CCCC=CCO`, the boiling point amounted to 157 °C. In turn, `c1ccc2c(c1)CCCO2` displayed a melting point of 215 °C. Consider `COC(=O)C=C(Cl)C(=O)OC`, for which the boiling point was 224 °C.

For the compound `C#CCN1C(=O)COc2cc(F)c(N3C(=O)C4=C(CCCC4)C3=O)cc21`, the melting point is 202 °C. As for `CCCCC(CC)COCCO` (stereo not drawn), the boiling point is 229 °C. In turn, `CC[C@H]1CN2CCc3cc(OC)c(OC)cc3[C@@H]2C[C@@H]1C[C@H]1NCCc2cc(OC)c(OC)cc21` displayed a melting point of 74 °C. Take `Cc1cc(O)c(C(C)(C)C)cc1C`: the boiling point is 258 °C and the melting point was found to be 46 °C. In the case of `OCC(F)(F)C(F)(F)C(F)(F)C(F)(F)C(F)(F)C(F)(F)C(F)(F)C(F)(F)C(F)(F)C(F)F`, the ready biodegradability entry was “not readily biodegradable”. In turn, `CC(=O)Oc1ccc(Cl)cc1Cl` registered a boiling point of 244 °C. `COC(=O)COc1ccccc1` came in with a boiling point of 245 °C and a melting point of 245 °C. In the case of `CCCCCCCC(C)C`, the boiling point is 167 °C, the log10 vapour pressure (mmHg) came to 0.276 and the melting point was -74.6 °C. `CC[C@H]1CN2CCc3cc(OC)c(OC)cc3[C@@H]2C[C@@H]1C[C@@H]1NCCc2cc(O)c(OC)cc21` came in with a melting point of 116 °C. `CCN(CCO)c1ccccc1` came in with a boiling point of 268 °C and a melting point of 37 °C. Turning to `CCOC(=O)COC(=O)c1cc(Oc2ccc(C(F)(F)F)cc2Cl)ccc1[N+](=O)[O-]`, the melting point is 65 °C. Compound `C[Si](C)(CCl)c1ccccc1` yielded a boiling point of 225 °C. `O=c1sc2ccccc2c(O)c1C1CC(c2ccc(-c3ccc(Br)cc3)cc2)Cc2ccccc21` (stereo not drawn) yielded a melting point of 234 °C. On the same count and under the same terms, the figure for `COc1cc(C(=O)N2CCOCC2)cc(OC)c1OC` is 121 °C.

Take `CCc1ccc(O)c(C(C)(C)C)c1`: the log10 vapour pressure (mmHg) is -1.74. On to `ClC/C=C/CCl`, for which the boiling point is 155 °C, the log10 vapour pressure (mmHg) stood at 0.574 and the melting point was -14.2 °C.

As to `O=C(O)Cc1c(F)c(F)c(F)c(F)c1F`, the melting point turned out to be 109 °C. `N#Cc1ccc(C#N)cc1`: the melting point was determined as 224 °C and the ready biodegradability result was “not readily biodegradable”. `N[C@H](CCS)C(=O)O` (racemic) showed a melting point of 226 °C.

The same data set, now with this note: fish.
Take `Cc1cc(Cl)c(Cl)cc1Cl`: the log10 BCF came to 3.87 and the log10 biotransformation half-life (days) came out at 2.01.

Regarding `Clc1cc(Cl)c(Cl)c(-c2c(Cl)c(Cl)cc(Cl)c2Cl)c1Cl`, the log10 BCF came to 5.82. For the compound `Cl[C@H]1[C@H](Cl)[C@@H](Cl)[C@@H](Cl)[C@H](Cl)[C@H]1Cl` (racemic), the log10 BCF was determined as 3.04. `COc1ccc(C)cc1N` returned a log10 BCF of 0.55 and a log10 biotransformation half-life (days) of -1.

`Brc1c(Br)c(Br)c(Oc2c(Br)c(Br)c(Br)c(Br)c2Br)c(Br)c1Br`: the log10 biotransformation half-life (days) came to 1.16.

On to `COc1ccc(C(c2ccc(OC)cc2)C(Cl)(Cl)Cl)cc1`, for which the log10 BCF is 2.5.

Compound `Cc1c(Cl)c(Cl)c(Cl)c(Cl)c1Cl` registered a log10 BCF of 3.83. On to `CN(C)c1ccccc1`, for which the log10 BCF turned out to be 0.9 and the log10 biotransformation half-life (days) was -0.96. With `CC1(C)C(C=C(Cl)Cl)C1C(=O)OC(C#N)c1cccc(Oc2ccccc2)c1` (stereo not drawn), the log10 BCF amounted to 2.53.

Regarding `c1ccc(-c2ccccc2-c2ccccc2)cc1`, the log10 BCF is 3.48 and the log10 biotransformation half-life (days) came out at 0.86. With `CCc1nn(C)c(C(=O)NCc2ccc(C(C)(C)C)cc2)c1Cl`, the log10 BCF amounted to 1.15.

Take `N#Cc1ccc(C#N)cc1`: the log10 BCF stood at 0.3 and the log10 biotransformation half-life (days) was -0.81.
